Source: US7858349B2, “Anti-cancer compounds” (The Regents of the University of Colorado, priority 1999, dated 2010)
Like-named read-outs stand apart in the source and are kept apart here.

Legend:
[1] = test system: SCLC strain SHP-77; experiment: MTT assay for cell survival, SCLC SHP-77 in vitro; type: cell-based, human; details: ED50 for killing of SCLC strain SHP-77 in vitro, 4 days, 0 = no detectable activity
[2] = test system: A549 NSCLC cells; experiment: Inhibition of A-549 tumor growth in vivo in nude mice; design: species or system athymic nude mice; key: an IC50 value of “0” represents no detectable anti-cancer activity for a drug in a given cell line; “Stim.” indicates the observation of a stimulatory activity on the growth of the cancer cell line; details: percent inhibition of tumor growth in nude mice; i.p. 5 mg/kg/every second day or 10 mg/kg/every fourth day
Method: (§1) Compounds having high in vitro cytotoxic activity were tested against implanted tumors in vivo. Athymic nude mice were implanted subcutaneously with suspensions (2 million SHP-77 SCLC cells, 1 million A549 NSCLC cells or 1.5 million PC3 PC cells) in Matrigel suspension. On the eighth day after tumor implantation groups of 5 mice bearing implants were injected intraperitoneally with the compounds being tested at 5 mg/kg/every second day or at 10 mg/kg/every fourth day; control animals were injected with an equal volume of isotonic saline. Less soluble compounds were initially dissolved in dimethyl sulfoxide (DMSO) and diluted with medium. In those cases the control injections contained the same concentration of DMSO. Tumor size was measured with a caliper three times per week. Tumor volume was calculated by the formula: Volume(cc)=3.14×(length)×(width)^2/6 At autopsy tumors were removed and weighed. Tumor inhibition was calculated on both weight and measurement basis. In each Table, an IC50 value of “0” represents no detectable anti-cancer activity for a drug in a given cell line and “Stim.” indicates the observation of a stimulatory activity on the growth of the cancer cell line.

[3] = test system: PC3 PC cells; experiment: Inhibition of PC3 tumor growth in vivo in nude mice; design: species or system athymic nude mice; key to PC3 In vivo % inhib.: an IC50 value of “0” represents no detectable anti-cancer activity for a drug in a given cell line; “Stim.” indicates the observation of a stimulatory activity on the growth of the cancer cell line; details: for PC3 In vivo % inhib.: percent inhibition of tumor growth in nude mice, prostate cancer, i.p. 5 mg/kg/every second day or 10 mg/kg/every fourth day
In short: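 Groups of 5 nude mice dosed i.p. at 10 mg/kg every fourth day or 5 mg/kg every second day, beginning 8 days after s.c. implantation of PC3 (1.5 million), A549 (1 million) or SHP-77 (2 million) cells in Matrigel; saline or DMSO-matched controls. Tumor weight at necropsy and caliper-derived volume both used to calculate inhibition.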

[4] = test system: NSCLC strain A-549; experiment: MTT assay for cell survival, NSCLC A-549 in vitro; type: cell-based, human; details: ED50 for killing of NSCLC strain A-549 in vitro, 4 days
[5] = test system: SHP-77 SCLC cells; experiment: Inhibition of SHP-77 tumor growth in vivo in nude mice; design: species or system athymic nude mice; details: 5 mg/kg/every second day or 10 mg/kg/every fourth day
Method: as §1

[6] = test system: cultured human cancer cell lines; experiment: MTT assay for cell survival, cell line not stated; type: cell-based; details: 4 days, read-out: concentration causing 50% cell death
[7] = test system: implanted tumors; experiment: In vivo anti-cancer activity after oral administration; design: species or system nude mice

Row | Compound | IC50 ([1]; read-out: SCLC SHP-77 IC50) [µM] | A-549 In vivo % inhib. [2] | IC50 ([1]; read-out: SHP-77 In vitro IC50) [µM] | PC3 In vivo % inhib. [3] | also measured
1 | CC1(C)CC(NC(=O)C(Cc2ccc(OCc3c(Cl)cccc3Cl)cc2)NC(=O)Cc2c(F)c(F)c(F)c(F)c2F)CC(C)(C)N1 (stereo not drawn) [Analog M-1356, F5pa-OC2Y-Atmp] | 4.4 | 0 | – | – | –
2 | CC(C)=CCCC(C)CC(=O)NC(Cc1ccc(OCc2c(Cl)cccc2Cl)cc1)C(=O)NC1CC(C)(C)NC(C)(C)C1 (stereo not drawn) [Analog M-1366, Dmo-OC2Y-Atmp] | 3.8 | 14% | – | – | –
3 | O=C(NC(Cc1ccc2ccccc2c1)C(=O)N(Cc1ccccn1)Cc1ccccn1)C(c1ccc(Cl)cc1)c1ccc(Cl)cc1 (stereo not drawn) [Analog M-1214, Bcpa-Nal-Dpic] | – | 24% | 7.3 | 37% | –
4 | CC1(C)CC(NC(=O)C(Cc2ccc(OCc3c(Cl)cccc3Cl)cc2)NC(=O)c2ccc(B(O)O)cc2)CC(C)(C)N1 (stereo not drawn) [Analog M-1372, Bbz-OC2Y-Atmp] | > 60 | 64% | – | – | –
5 | COc1ccc(C=CC(=O)NC(Cc2ccc(OCc3c(Cl)cccc3Cl)cc2)C(=O)NC2CC(C)(C)NC(C)(C)C2)cc1OC (stereo not drawn) [Analog M-1362, 3,4Dmc-OC2Y-Atmp] | 4 | 21% | – | – | –
6 | CC(=O)Oc1ccccc1C(=O)NC(Cc1ccc(OCc2c(Cl)cccc2Cl)cc1)C(=O)NC1CC(C)(C)NC(C)(C)C1 (stereo not drawn) [Analog M-1378, Aspr-OC2Y-Atmp] | 2.9 | 9% | – | Stim. | IC50 [4]: 3.5 µM
7 | CC(C(=O)NC(Cc1ccc(OCc2c(Cl)cccc2Cl)cc1)C(=O)NC1CC(C)(C)NC(C)(C)C1)c1cccc(C(=O)c2ccccc2)c1 (stereo not drawn) [Analog M-1392, Ktpf-OC2Y-Atmp] | 2.9 | 28% | – | 18% | –
8 | CC1(C)CC(NC(=O)[C@H](Cc2ccc(C#N)cc2)NC(=O)c2ccccn2)CC(C)(C)N1 [Analog M-1352, Pic-PCNF-Atmp] | > 60 | 21% | – | – | –
9 | CCCCCCC(O)CC=CCCCCCCCC(=O)NC(Cc1ccc(OCc2c(Cl)cccc2Cl)cc1)C(=O)NC1CC(C)(C)NC(C)(C)C1 (stereo not drawn) [Analog M-1128, Rio-OC2Y-Atmp] | – | 48% | 1.6 | 44% | –
10 | CC1(C)CC(NC(=O)C(Cc2ccc(OCc3c(Cl)cccc3Cl)cc2)NC(=O)Cc2ccccc2Nc2c(Cl)cccc2Cl)CC(C)(C)N1 (stereo not drawn) [Analog M-1382, Dfc-OC2Y-Atmp] | 2.9 | 46% | – | – | –
11 | Pentafluorocinnamoyl-O-(2,6-dichlorobenzyl)tyrosine-4-amino-2,2,6,6-tetramethylpiperidine [Analog M570, reference compound] | – | – | – | – | inhibition of growth of the SCLC line SHP-77 [5]: 85%; inhibition of PC cell line PC3 tumors ([3]; nude mice, 5 mg/kg/every second day or 10 mg/kg/every fourth day): 65%; IC50 [6]: 0.15 µM; in vivo anti-cancer activity after oral administration [7]: active
12 | COc1ccc2c(c1)c(CC(=O)NC(Cc1ccc(OCc3c(Cl)cccc3Cl)cc1)C(=O)NC1CC(C)(C)NC(C)(C)C1)c(C)n2C(=O)c1ccc(Cl)cc1 (stereo not drawn) [Analog M-1376, Indo-OC2Y-Atmp] | 1.5 | 18% | – | 44% | IC50 [4]: 1.8 µM
13 | CC1(C)CC(NC(=O)C(Cc2ccc(OCc3c(Cl)cccc3Cl)cc2)NC(=O)C(c2ccccc2)C2CCCCC2)CC(C)(C)N1 (single isomer, unassigned) [M-1124#2, Chpa-OC2Y-Atmp] | – | 4.5% | 3.5 | – | –
14 | O=C(C=Cc1c(F)c(F)c(F)c(F)c1F)NC(Cc1ccc2ccccc2c1)C(=O)N1CCN(c2ccccn2)CC1 (stereo not drawn) [Analog M-1216, F5c-Nal-Pypz] | – | 32% | > 60 | 22% | –
15 | CC1(C)CC(NC(=O)C(Cc2ccc(OCc3c(Cl)cccc3Cl)cc2)NC(=O)C(c2ccccc2)C2CCCCC2)CC(C)(C)N1 (single isomer, unassigned) [M-1124#1, Chpa-OC2Y-Atmp] | – | 50% | 1.7 | Stim | –
16 | CC1(C)CC(NC(=O)C(Cc2ccc(OCc3c(Cl)cccc3Cl)cc2)NC(=O)CCCc2ccc(N(CCCl)CCCl)cc2)CC(C)(C)N1 (stereo not drawn) [Analog M-1384, Chl-OC2Y-Atmp] | 1.8 | 46% | – | Stim. | IC50 [4]: 1.9 µM
17 | CC1(C)CC(NC(=O)C(Cc2ccc(OCc3c(Cl)cccc3Cl)cc2)NC(=O)CCCc2c[nH]c3ccccc23)CC(C)(C)N1 (stereo not drawn) [Analog M-1364, 3Ibu-OC2Y-Atmp] | 7.2 | 50% | – | 9% | –
18 | CC1(C)CC(NC(=O)C(Cc2ccc(OCc3c(Cl)cccc3Cl)cc2)NC(=O)c2cnccn2)CC(C)(C)N1 (stereo not drawn) [Analog M-1368, 2Pyz-OC2Y-Atmp] | 3.2 | 47% | – | Stim. | –
19 | CC1(C)CC(NC(=O)C(Cc2ccc(OCc3c(Cl)cccc3Cl)cc2)NC(=O)C=Cc2cc(F)cc(F)c2F)CC(C)(C)N1 (stereo not drawn) [Analog M-1388, F3c-OC2Y-Atmp] | 1.6 | 21% | – | Stim. | –
20 | O=C(NC1CCN(Cc2ccccc2)CC1)C(Cc1c(F)c(F)c(F)c(F)c1F)NC(=O)C(c1ccc(Cl)cc1)c1ccc(Cl)cc1 (stereo not drawn) [Analog M-1188, Bcpa-F5F-Abzp] | – | 17% | 4.5 | – | –
21 | CC1(C)CC(NC(=O)C(Cc2ccc(OCc3c(Cl)cccc3Cl)cc2)NC(=O)c2ccccn2)CC(C)(C)N1 (stereo not drawn) [Analog M-1350, Pic-OC2Y-Atmp] | 6.1 | 36% | – | – | –
22 | O=C(C=Cc1c(F)c(F)c(F)c(F)c1F)NC(Cc1ccc(I)cc1)C(=O)NC1CCN(Cc2ccccc2)CC1 (stereo not drawn) [Analog M-1180, F5c-PIF-Abzp] | – | 23% | 3.2 | 53% | –
23 | O=C(NC(Cc1ccc2ccccc2c1)C(=O)N1CCN(c2ccccn2)CC1)C(c1ccc(Cl)cc1)c1ccc(Cl)cc1 (stereo not drawn) [Analog M-1242, Bcpa-Nal-Pypz] | – | 19% | > 60 | 36% | –
24 | CC1(C)CC(NC(=O)C(Cc2ccc(OCc3c(Cl)cccc3Cl)cc2)NC(=O)C2CCn3c(C(=O)c4ccccc4)ccc32)CC(C)(C)N1 (stereo not drawn) [Analog M-1394, Ktlc-OC2Y-Atmp] | 2.9 | 68% | – | Stim. | IC50 [4]: 4.9 µM
25 | CC1(C)CC(NC(=O)C(Cc2ccc(-c3ccccc3)cc2)NC(=O)C=Cc2c(F)c(F)c(F)c(F)c2F)CC(C)(C)N1 (stereo not drawn) [Analog M-1174, F5c-Bip-Atmp] | – | 57% | 3.7 | 37% | –
26 | O=C(C=Cc1c(F)c(F)c(F)c(F)c1F)NC(Cc1ccc2ccccc2c1)C(=O)N(Cc1ccccn1)Cc1ccccn1 (stereo not drawn) [Analog M-1200, F5c-Nal-Dpic] | – | Stim | 5 | – | –
27 | CC1(C)CC(NC(=O)C(Cc2ccc(OCc3c(Cl)cccc3Cl)cc2)NC(=O)C(C)(c2ccccc2)c2ccccc2)CC(C)(C)N1 (stereo not drawn) [Analog M-1126, 22Dp-OC2Y-Atmp] | – | 36% | 4 | – | –
